# Like-named read-outs stand apart in the source and are kept apart here.
# Tested on: Mycosphaerella graminicola; Anamorph: Septoria tritici; Bayer Code SEPTTR
# Experiment: Leaf blotch of wheat, foliar fungicide treatment, one day protectant (1DP) or three day curative (3DC)
# Assay type: in vivo, Septoria tritici on wheat plants (variety Yuma)
# Conditions: Zymoseptoria tritici; for pest or weed control at 200 ppm / pest or weed control at 50 ppm: % disease control rating
# [1] = 24 h, one day protectant (1DP), 25 ppm, rating of percent disease control, read-out: SETTTR 1DP 25 ppm
# [2] = 24 h, one day protectant (1DP), rating of percent disease control, read-out: SEPTTR 1DP 100 ppm
# [3] = 72 h, three day curative (3DC), 25 ppm, rating of percent disease control, read-out: SEPTTR 3DC 25 ppm
# [4] = 72 h, three day curative (3DC), rating of percent disease control, read-out: SEPTTR 3DC 100 ppm
# [5] = 24 h, one day protectant (1DP), 25 ppm (first 1DP column), percent control rating, read-out: SETTTR 1DP 25 ppm
# [6] = 24 h, one day protectant (1DP), 25 ppm as printed (second 1DP column), percent control rating, read-out: SETTTR 1DP 25 ppm
# [7] = 72 h, three day curative (3DC), 25 ppm, percent control rating, read-out: SEPTTR 3DC 25 ppm
# [8] = 72 h, three day curative (3DC), percent control rating, read-out: SEPTTR 3DC 100 ppm
# [9] = 24 h, one day protectant, 25 ppm, rating of percent disease control, read-out: SETTTR 1DP 25 ppm
# [10] = 24 h, one day protectant, rating of percent disease control, read-out: SEPTTR 1DP 100 ppm
# [11] = 72 h, three day curative, 25 ppm, rating of percent disease control, read-out: SEPTTR 3DC 25 ppm
# [12] = 72 h, three day curative, rating of percent disease control, read-out: SEPTTR 3DC 100 ppm
# [13] = 24 h, one day protectant (1DP), 25 ppm, percent disease control rating, read-out: SETTTR 1DP 25 ppm
# [14] = 24 h, one day protectant (1DP), percent disease control rating, read-out: SEPTTR 1DP 100 ppm
# [15] = 72 h, three day curative (3DC), 25 ppm, percent disease control rating, read-out: SEPTTR 3DC 25 ppm
# [16] = 72 h, three day curative (3DC), percent disease control rating, read-out: SEPTTR 3DC 100 ppm
smiles,measurement,setting,value
CCOC(=O)Nc1nc(OC(C)c2ccc(F)cc2)ncc1F (stereo not shown) [Compound 749],pest or weed control at 25 ppm,[1],76 to 100%
same,pest or weed control at 100 ppm,[2],76 to 100%
same,pest or weed control at 25 ppm,[3],76 to 100%
same,pest or weed control at 100 ppm,[4],76 to 100%
Nc1nc(OC(c2ccc(F)cc2)c2ccc(F)cc2)ncc1F [Compound 355],pest or weed control at 25 ppm,[1],76 to 100%
same,pest or weed control at 100 ppm,[2],76 to 100%
same,pest or weed control at 25 ppm,[3],76 to 100%
same,pest or weed control at 100 ppm,[4],76 to 100%
CCOCNc1nc(OCc2cccc(F)c2)ncc1F [Compound 498],pest or weed control at 25 ppm,[1],76 to 100%
same,pest or weed control at 100 ppm,[2],76 to 100%
same,pest or weed control at 25 ppm,[3],76 to 100%
same,pest or weed control at 100 ppm,[4],76 to 100%
C/C(=N\Oc1nc(OCc2ccccc2)ncc1F)c1cnc(OCC(F)(F)F)nc1 [Compound 990],pest or weed control at 25 ppm,[5],0 to 25%
same,pest or weed control at 25 ppm,[6],0 to 25%
same,pest or weed control at 25 ppm,[7],0 to 25%
same,pest or weed control at 100 ppm,[8],0 to 25%
C=CCOc1ncc(F)c(NNc2cc(C)ccc2C)n1 [Compound 1074],pest or weed control at 25 ppm,[5],0 to 25%
same,pest or weed control at 25 ppm,[6],0 to 25%
same,pest or weed control at 25 ppm,[7],0 to 25%
same,pest or weed control at 100 ppm,[8],26 to 50%
COc1ccc(COc2ncc(F)c(NC3CC3)n2)cc1 [Compound 823],pest or weed control at 200 ppm,"24 h, one day protectant",76 to 100%
CON(C)c1nc(O)ncc1F [Compound 1096],pest or weed control at 25 ppm,[5],0 to 25%
same,pest or weed control at 25 ppm,[6],0 to 25%
same,pest or weed control at 25 ppm,[7],0 to 25%
same,pest or weed control at 100 ppm,[8],76 to 100%
Cc1ccc(CNc2nc(OCc3ccc(F)cc3)ncc2F)cc1 [Compound 951],pest or weed control at 50 ppm,"24 h, one day protectant",51 to 75%
same,pest or weed control at 200 ppm,"24 h, one day protectant",76 to 100%
Fc1ccc(COc2ncc(F)c(NCc3ccc4c(c3)OCO4)n2)cc1 [Compound 882],pest or weed control at 50 ppm,"24 h, one day protectant",76 to 100%
same,pest or weed control at 200 ppm,"24 h, one day protectant",76 to 100%
N#Cc1cccc(COc2ncc(F)c(NC(=O)OCc3ccccc3)n2)c1 [Compound 690],pest or weed control at 25 ppm,[9],51 to 75%
same,pest or weed control at 100 ppm,[10],76 to 100%
same,pest or weed control at 25 ppm,[11],76 to 100%
same,pest or weed control at 100 ppm,[12],76 to 100%
Cc1ccc(COc2ncc(F)c(NCOCc3ccccc3)n2)cc1 [Compound 162],pest or weed control at 25 ppm,[13],26 to 50%
same,pest or weed control at 100 ppm,[14],76 to 100%
same,pest or weed control at 25 ppm,[15],0 to 25%
same,pest or weed control at 100 ppm,[16],0 to 25%
Fc1cnc(OCc2ccccc2)nc1NCOCc1ccccc1 [Compound 330],pest or weed control at 25 ppm,[1],0 to 25%
same,pest or weed control at 100 ppm,[2],76 to 100%
same,pest or weed control at 25 ppm,[3],0 to 25%
same,pest or weed control at 100 ppm,[4],26 to 50%
"CCOC(=O)Oc1ncc(F)c(/N=C/N(C)C)n1 [Compound 26, Carbonic acid 4-(dimethylamino-methyleneamino)-5-fluoropyrimidin-2-yl ester ethyl ester]",pest or weed control at 25 ppm,[13],76 to 100%
same,pest or weed control at 100 ppm,[14],76 to 100%
same,pest or weed control at 25 ppm,[15],76 to 100%
same,pest or weed control at 100 ppm,[16],76 to 100%
Nc1nc(OCc2nccs2)ncc1F [Compound 628],pest or weed control at 25 ppm,[9],26 to 50%
same,pest or weed control at 100 ppm,[10],76 to 100%
same,pest or weed control at 25 ppm,[11],51 to 75%
same,pest or weed control at 100 ppm,[12],76 to 100%
O=C(NCc1ccccc1F)Nc1nc(OCc2cccs2)ncc1F [Compound 116],pest or weed control at 25 ppm,[13],0 to 25%
same,pest or weed control at 100 ppm,[14],0 to 25%
same,pest or weed control at 25 ppm,[15],0 to 25%
same,pest or weed control at 100 ppm,[16],0 to 25%
COc1cccc(COc2ncc(F)c(NN3CCCCC3)n2)c1 [Compound 562],pest or weed control at 25 ppm,[9],0 to 25%
same,pest or weed control at 100 ppm,[10],0 to 25%
same,pest or weed control at 25 ppm,[11],0 to 25%
same,pest or weed control at 100 ppm,[12],26 to 50%
N#Cc1cc(COc2ncc(F)c(N)n2)ccn1 [Compound 437],pest or weed control at 25 ppm,[1],0 to 25%
same,pest or weed control at 100 ppm,[2],51 to 75%
same,pest or weed control at 25 ppm,[3],0 to 25%
same,pest or weed control at 100 ppm,[4],51 to 75%
Nc1nc(OCC(F)(F)F)ncc1F [Compound 864],pest or weed control at 50 ppm,"24 h, one day protectant",0 to 25%
same,pest or weed control at 200 ppm,"24 h, one day protectant",26 to 50%
CC(C)S(=O)(=O)Nc1nc(OCc2ccccc2)ncc1F [Compound 1009],pest or weed control at 25 ppm,[5],0 to 25%
same,pest or weed control at 25 ppm,[6],0 to 25%
same,pest or weed control at 25 ppm,[7],0 to 25%
same,pest or weed control at 100 ppm,[8],0 to 25%
Fc1ccc(COc2ncc(F)c(NCCc3ccccc3)n2)cc1 [Compound 805],pest or weed control at 50 ppm,"24 h, one day protectant",51 to 75%
same,pest or weed control at 200 ppm,"24 h, one day protectant",76 to 100%
COc1ccc(COc2ncc(F)c(NC(=O)NCc3ccccc3F)n2)cc1F [Compound 464],pest or weed control at 25 ppm,[1],0 to 25%
same,pest or weed control at 100 ppm,[2],0 to 25%
same,pest or weed control at 25 ppm,[3],0 to 25%
same,pest or weed control at 100 ppm,[4],26 to 50%
